Literature values, collected in US20130096060A1, “GLP-1 AGONIST FOR USE IN THE TREATMENT OF STENOSIS OR/AND OBSTRUCTION IN THE PANCREATIC DUCT SYSTEM” (priority 2011, published 2013).

Tests used:
[1] = test system: acinar cells of the guinea pig pancreas; details: by interaction with exendin receptors (Raufman, 1996)
[2] = test system: acinar cells of the pancreas; details: in contrast to exendin-4

| Substance | cellular cAMP production [1] | amylase release [2] |
| --- | --- | --- |
| exendin-4: peptide of the exendin group, 39 AS, SEQ ID NO: 2, able to lower blood glucose concentrations | stimulate an increase |  |
| exendin-3: peptide of the exendin group, able to lower blood glucose concentrations | stimulate an increase | produces an increase |
